These results are taken from ChEMBL document CHEMBL1201862, “PubChem BioAssay data set” (2004).

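Each compound was tested at five concentrations against cells in 96-well plates for 48 hours. Here, GI50 denotes the concentration required for 50% inhibition of growth.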 Calls of active or inactive are those of the source. Rule as the data show it: active = GI50 up to about 1.1 µM and inactive = higher.

Among the test systems are COLO 205; EKVX; M14; Malme-3M; NCI-H460; NCI-H522; OVCAR-5; OVCAR-8; RPMI-8226; RXF 393; SF-295; SK-MEL-5; SN12C; SNB-19; SNB-75; SR; SW-620; U-251; UACC-257; SF-539.
Common to all, as to experiment: NCI tumour cell line growth inhibition, 48 h

As to `COC(=O)C(=O)C1(CCC(C)=O)c2ccccc2-c2ccccc21`, the GI50 was 76.9 µM (inactive) with COLO 205; > 100 µM (inactive) in the assay with EKVX; 41 µM (inactive) with M14; 49.7 µM (inactive) in the assay with Malme-3M; 59.8 µM (inactive) in the assay with NCI-H460; 69.2 µM (inactive) with NCI-H522. The GI50 with OVCAR-5 was > 100 µM (inactive); in the assay with OVCAR-8, 99.8 µM (inactive); in the assay with RPMI-8226 it was 36.4 µM (inactive); in the assay with RXF 393 it was 57.4 µM (inactive); in the assay on SF-295, > 100 µM (inactive); in the assay on SK-MEL-5, 35.7 µM (inactive). Also, the GI50 in the assay with SN12C was > 100 µM (inactive); in the assay on SNB-19, > 100 µM (inactive); in the assay on SNB-75 it was 93.3 µM (inactive); in the assay on SR, 41 µM (inactive); with SW-620, > 100 µM (inactive); in the assay on U-251, 68.5 µM (inactive). In addition, the GI50 in the assay with UACC-257 was 55.2 µM (inactive).
Take `O=C(O)CCSC(=O)Nc1ccccc1`: the GI50 in the assay with COLO 205, in the assay on EKVX, with M14, in the assay with NCI-H460, with OVCAR-5 and with OVCAR-8 was > 100 µM (inactive) throughout. In addition, the GI50 in the assay with RPMI-8226, in the assay with RXF 393, in the assay on SF-295, with SF-539, in the assay on SN12C and in the assay with SNB-19 was > 100 µM (inactive) in each case. The GI50 with SR was > 100 µM (inactive); with SW-620, 92.9 µM (inactive); in the assay with U-251, > 100 µM (inactive); in the assay with UACC-257 it was > 100 µM (inactive).
For the molecule `CC(=O)O[C@H]1[C@@H](OC2CCCC2(c2ccccc2)c2ccccc2)O[N+]([O-])=C[C@@]12COCc1cc3c(cc12)OCO3` (stereo partly drawn), the GI50 is > 32.4 µM (inactive) in the assay with COLO 205; 3.02 µM (inactive) in the assay on EKVX; 11.2 µM (inactive) in the assay on M14; 7.06 µM (inactive) in the assay with NCI-H460; 1.98 µM (inactive) in the assay with NCI-H522; 18.7 µM (inactive) in the assay with OVCAR-5. The GI50 is 4.24 µM (inactive) in the assay on OVCAR-8; 5.74 µM (inactive) in the assay on RXF 393; 5.25 µM (inactive) in the assay on SF-295; 93.3 µM (inactive) in the assay with SF-539; 4.6 µM (inactive) with SK-MEL-5; 3.78 µM (inactive) in the assay on SN12C. Moreover, the GI50 in the assay with SNB-19 was 15.1 µM (inactive); in the assay on SNB-75, 4.11 µM (inactive); in the assay on SR, 2.32 µM (inactive); in the assay with SW-620, 7.03 µM (inactive); in the assay on U-251 it was 7.48 µM (inactive); with UACC-257 it was 18.2 µM (inactive).
In the case of `CC(C)(C)OC(=O)NCCCCCCC(=O)Cc1ccccc1`, the GI50 is 75.2 µM (inactive) in the assay on COLO 205; > 100 µM (inactive) in the assay with EKVX; > 100 µM (inactive) in the assay with M14; > 100 µM (inactive) in the assay on Malme-3M; > 100 µM (inactive) with NCI-H460; > 100 µM (inactive) in the assay with NCI-H522. The GI50 in the assay on OVCAR-5 is > 100 µM (inactive); in the assay with OVCAR-8, > 100 µM (inactive); in the assay on RPMI-8226 it was > 100 µM (inactive); in the assay with RXF 393, > 100 µM (inactive); with SF-295 it was > 100 µM (inactive); in the assay with SK-MEL-5 it was 60.8 µM (inactive). Further, the GI50 with SN12C, in the assay on SNB-19, with SNB-75, in the assay with SR, in the assay with SW-620 and with U-251 was > 100 µM (inactive) each time. Besides, the GI50 with UACC-257 is > 100 µM (inactive).
In the case of `C[N+]12C=CC=C1C(N1CCCC1)c1scc(-c3ccccc3)c12` (stereo not drawn), the GI50 in the assay on COLO 205 was 15.1 µM (inactive); with EKVX, 14.5 µM (inactive); with M14, 50.2 µM (inactive); in the assay on Malme-3M, 11.8 µM (inactive); in the assay on NCI-H522 it was 3.28 µM (inactive); in the assay on OVCAR-5 it was 64.1 µM (inactive). The GI50 with OVCAR-8 is 22.5 µM (inactive); in the assay with RPMI-8226, 5.92 µM (inactive); in the assay with RXF 393, 17.8 µM (inactive); in the assay on SF-295 it was 44.3 µM (inactive); in the assay with SK-MEL-5, 11.9 µM (inactive); with SN12C, 5.26 µM (inactive). The GI50 in the assay with SNB-19 was 10.6 µM (inactive); with SNB-75, 3.99 µM (inactive); in the assay on SR, 12.6 µM (inactive); with SW-620, 93.3 µM (inactive); in the assay on U-251 it was 5.92 µM (inactive).
For `Cc1cccc2nc3cccc(C(=O)NCCC[N+](C)(CCCNC(=O)c4cccc5nc6cccc(C)c6nc45)Cc4ccc([N+](=O)[O-])n4C)c3nc12`, the GI50 is 3.58 µM (inactive) in the assay on COLO 205; 2.1 µM (inactive) with EKVX; > 31.3 µM (inactive) in the assay with M14; 35.9 µM (inactive) in the assay with Malme-3M; 0.405 µM (active) in the assay with NCI-H460; 4.13 µM (inactive) with NCI-H522. The GI50 with OVCAR-5 was 6.68 µM (inactive); in the assay with OVCAR-8, 0.49 µM (active); in the assay with RPMI-8226, 1.33 µM (inactive); with RXF 393 it was > 100 µM (inactive); in the assay on SF-295 it was 5.66 µM (inactive); with SK-MEL-5, 2.89 µM (inactive). Moreover, the GI50 in the assay on SN12C is 0.839 µM (active); in the assay on SNB-19 it was 13.1 µM (inactive); with SNB-75 it was > 100 µM (inactive); in the assay with SR it was 0.294 µM (active); in the assay on SW-620, 0.284 µM (active); in the assay on U-251, 0.456 µM (active). Moreover, in the assay on UACC-257, the GI50 is > 31.6 µM (inactive).
As for `N=C(N)NCCCC(NC(=O)OCCCCn1ccc(N)nc1=O)C(=O)O` (stereo not drawn), the GI50 in the assay on COLO 205, with EKVX, with M14, in the assay on NCI-H460, in the assay with OVCAR-5 and in the assay with RPMI-8226 was > 100 µM (inactive) each time. Moreover, the GI50 with RXF 393, in the assay with SF-295, in the assay on SF-539, in the assay on SN12C, in the assay on SNB-19 and with SNB-75 was > 100 µM (inactive) each time. Besides, the GI50 with SR, in the assay on SW-620, in the assay on U-251 and in the assay on UACC-257 was > 100 µM (inactive) throughout.
`CC1=NN(c2nc(N)nc(CSc3nc4n(c(=S)n3)CCN4)n2)C(C)(C)C1`: the GI50 in the assay with COLO 205 is 38.5 µM (inactive); with EKVX, 27.4 µM (inactive); in the assay with M14 it was 67.9 µM (inactive); in the assay with NCI-H460, > 100 µM (inactive); with OVCAR-8, 18.3 µM (inactive); in the assay on RPMI-8226, > 100 µM (inactive). The GI50 was 15.6 µM (inactive) in the assay on RXF 393; 22.9 µM (inactive) with SF-295; 44.8 µM (inactive) with SF-539; > 100 µM (inactive) in the assay with SK-MEL-5; 37.9 µM (inactive) with SNB-19; 15.3 µM (inactive) in the assay on SNB-75. Moreover, the GI50 with SR was > 100 µM (inactive); with SW-620 it was > 100 µM (inactive); with U-251 it was 37.9 µM (inactive); with UACC-257, > 100 µM (inactive).
`C/C(=N\NC(N)=S)c1cccs1.OB(O)c1ccccc1`: the GI50 is > 100 µM (inactive) in the assay on COLO 205; > 100 µM (inactive) with M14; > 100 µM (inactive) with Malme-3M; > 100 µM (inactive) in the assay with NCI-H460; 70.6 µM (inactive) with NCI-H522; > 100 µM (inactive) in the assay on OVCAR-5. Also, the GI50 with OVCAR-8, in the assay with RPMI-8226, in the assay with SF-295, in the assay with SF-539, in the assay with SK-MEL-5 and with SN12C was > 100 µM (inactive) in each case. In addition, the GI50 in the assay with SNB-19, in the assay with SNB-75, in the assay with SR, in the assay on SW-620 and in the assay with U-251 was > 100 µM (inactive) each time.
Turning to `O=C1c2ccc3c4ccc5c6c(ccc(c7ccc(c2c37)C(=O)N1CCN1CCCCC1)c64)C(=O)N(CCN1CCCCC1)C5=O`, the GI50 with COLO 205, in the assay on EKVX, with M14, in the assay on NCI-H460, with OVCAR-5 and in the assay with OVCAR-8 was > 100 µM (inactive) each time. Also, the GI50 with RPMI-8226, in the assay with RXF 393, in the assay on SF-295, in the assay on SF-539, in the assay with SK-MEL-5 and in the assay on SN12C was > 100 µM (inactive) throughout. For the same molecule, the GI50 in the assay with SNB-19, in the assay with SR, with SW-620, in the assay with U-251 and with UACC-257 was > 100 µM (inactive) in each case.
For `COc1cc(-c2oc3c(OC)c(O)c(OC)c(O)c3c(=O)c2OC)cc(OC)c1OC`, the GI50 with COLO 205 is 83.8 µM (inactive); with EKVX, > 100 µM (inactive); in the assay on M14, 14.1 µM (inactive); with Malme-3M it was > 100 µM (inactive); in the assay on NCI-H460, 39 µM (inactive); in the assay with NCI-H522, 17.4 µM (inactive). Besides, the GI50 is > 100 µM (inactive) in the assay with OVCAR-5; 53.7 µM (inactive) in the assay with OVCAR-8; 31.8 µM (inactive) with RPMI-8226; > 100 µM (inactive) with SF-295; 74.3 µM (inactive) in the assay with SF-539; 14 µM (inactive) in the assay with SK-MEL-5. The GI50 is > 100 µM (inactive) in the assay with SN12C; > 100 µM (inactive) in the assay on SNB-19; 20.8 µM (inactive) in the assay with SNB-75; 51.2 µM (inactive) with SR; > 100 µM (inactive) in the assay on SW-620; 47.6 µM (inactive) in the assay on U-251. For the same molecule, in the assay on UACC-257, the GI50 was 82.4 µM (inactive).
